Results reported in patent US7947703B2, “Phenanthridinium derivatives as DNA binding agents” (University Court of the University of Glasgow, priority 2003, dated 2011).
Marks after values point to notes of the source that are not given here.

What was measured:
[1] = test system: human ovarian tumour cell line A2780; assay: growth (tetrazolium dye-based microtitration) cytotoxicity assay, A2780; type: cell-based; conditions: for IC50: Homo sapiens, A2780, cisplatin-sensitive line, 24 hours drug exposure, 3 day recovery, mean±SEM of triplicate plates; for cytotoxicity (in words): overall statement across A2780, A2780/cp70 and MCP1
Procedure: (§1) Compounds were tested in a growth assay with a 24 hours drug exposure and a 3 day recovery period. Cell lines used were human ovarian tumour cell line A2780 and 2 Cisplatin resistant derivatives cell lines A27080/cp70 and MCP1. IC50 is the concentration of drug required to reduce the surviving cell number to 50% of that of the control untreated cells. Results are from one experiment and are the mean±SEM of the triplicate plates.
(§2) DIP cytotoxicity was determined by a tetrazolium dye-based microtitration assay. DNA affinity measurements of DIPs were undertaken using Isothermal Titration Calorimetry (ITC).

[2] = test system: Cisplatin resistant cell line A2780/cp70; assay: growth (tetrazolium dye-based microtitration) cytotoxicity assay, A2780/cp70; type: cell-based, human; conditions: for IC50: Homo sapiens, A2780/CP70, cisplatin-resistant line, 24 hours drug exposure, 3 day recovery, mean±SEM of triplicate plates; for RF1: rapport of the IC50 between A2780 and A2780/cp70, the lower RF the better
Procedure: as §1, §2

[3] = test system: Cisplatin resistant cell line MCP1; assay: growth (tetrazolium dye-based microtitration) cytotoxicity assay, MCP1; type: cell-based, human; conditions: for IC50: Homo sapiens, cisplatin-resistant line, 24 hours drug exposure, 3 day recovery, mean±SEM of triplicate plates; for RF2: rapport of the IC50 between A2780 and MCP1, the lower RF the better
Procedure: as §1, §2

Salmon DNA = assay: DNA affinity by Isothermal Titration Calorimetry (ITC), Salmon DNA; type: binding; set-up: key to Ka Salmon DNA: *^1: No measurable binding via ITC
Procedure: as §2

Calf DNA = assay: DNA affinity by Isothermal Titration Calorimetry (ITC), Calf DNA; type: binding; set-up: key: *^1: No measurable binding via ITC
Procedure: as §2

DNA = assay: Viscosimetry analysis (DNA intercalation); conditions: preliminary result

melting point	SMILES	IC50 [1] [µM]	IC50 [2] [µM]	IC50 [3] [µM]	Ka Salmon DNA (Salmon DNA)	Ka Calf DNA (Calf DNA)	also measured
182 to 183 °C	COc1ccc(CSCC[n+]2cc3ccccc3c3ccccc32)cc1.[Br-]	–	–	–	–	–	–
250 to 251 °C (dec.)	CC(C)N1CC[n+]2c1c1ccccc1c1ccccc12.[Br-]	–	–	–	–	–	–

The next lines start with the molecule.

SMILES	melting point	IC50 [1] [µM]	IC50 [2] [µM]	IC50 [3] [µM]	Ka Salmon DNA (Salmon DNA)	Ka Calf DNA (Calf DNA)	also measured
[Br-].[Br-].c1ccc2c(c1)c[n+](CCN1CCN(CC[n+]3cc4ccccc4c4ccccc43)CC1)c1ccccc21	260 to 261 °C	–	–	–	–	–	–
c1ccc2c(c1)c1[n+](c3ccccc23)CCN1 [AP5-94, 2,3-Dihydro-1H-imidazo[1,2-f]phenanthridin-4-ylium bromide]	–	1.56 ± 0.18	2.3 ± 0.15	0.82 ± 0.09	2.56 ± 802.6 M^−1 (10^4)	2.06 ± 907 M^−1 (10^4)	cytotoxicity on cisplatin-sensitive cell line A2780 (in words) [1]: high cytotoxicity; less active on A2780/cp70 than on A2780 [2]: 50%; RF1 [2]: 1.5; more active on MCP1 than A2780 [3]: 50%; RF2 [3]: 0.5; viscosity of DNA (in words) (DNA): increase of viscosity similar to the one obtained with the DNA intercalator reference ethidium bromide
COC(=O)[C@H](Cc1ccccc1)N1CC[n+]2c1c1ccccc1c1ccccc12.[Br-] [AP8-56]	–	35.8 ± 4.2	21.6 ± 1.8	20 ± 1.2	*^1	*^1	cytotoxicity on cisplatin-sensitive cell line A2780 (in words) [1]: moderate cytotoxicity; cytotoxicity (in words) [1]: moderate activity; DNA affinity (in words) (Salmon DNA; DNA source not given): does not have any measurable binding property
[Br-].c1ccc2c(c1)c[n+](CCN1CCCCC1)c1ccccc21	167 to 168 °C	–	–	–	–	–	–
CCCN1CC[n+]2c1c1ccccc1c1ccccc12 [AP10-22, 1-Propyl-2,3-dihydro-1H-imidazo[1,2-f]phenanthridin-4-ylium bromide]	–	6.71 ± 0.86	5.11 ± 0.19	2.86 ± 0.32	3.11 ± 2203 M^−1 (10^4)	3.67 ± 1310 M^−1 (10^4)	cytotoxicity (in words) [1]: the least active of all the alkyl DIP derivatives; RF1 [2]: 0.8; RF2 [3]: 0.4
